{
  "source": "ChEMBL document CHEMBL1201862",
  "about": "“PubChem BioAssay data set” (2004)",
  "key": {"[1]": {"biological_target": "T1, Alkaline phosphatase, tissue-nonspecific isozyme (Homo sapiens, UniProt P05186)", "T1 sequence (P05186 whole entry)": "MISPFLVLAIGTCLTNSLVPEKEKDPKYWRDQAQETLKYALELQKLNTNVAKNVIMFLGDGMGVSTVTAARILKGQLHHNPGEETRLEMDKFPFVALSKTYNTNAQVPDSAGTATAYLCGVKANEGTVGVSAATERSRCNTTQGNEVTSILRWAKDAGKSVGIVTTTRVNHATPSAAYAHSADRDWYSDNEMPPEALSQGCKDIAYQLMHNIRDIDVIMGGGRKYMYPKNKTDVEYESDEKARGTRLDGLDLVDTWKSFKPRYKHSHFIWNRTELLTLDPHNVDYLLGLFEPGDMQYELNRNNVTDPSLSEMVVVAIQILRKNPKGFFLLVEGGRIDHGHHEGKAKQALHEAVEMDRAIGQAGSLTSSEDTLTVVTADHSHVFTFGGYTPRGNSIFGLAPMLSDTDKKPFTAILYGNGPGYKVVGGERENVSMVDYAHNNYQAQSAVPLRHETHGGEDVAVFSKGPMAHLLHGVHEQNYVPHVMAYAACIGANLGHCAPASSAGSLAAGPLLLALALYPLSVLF", "assay": "potency against alkaline phosphatase TNAP – biochemical, luminescent, dose response, SAR follow-up (AID 1056)"}, "[2]": {"biological_target": "Glyceraldehyde-3-phosphate dehydrogenase (Homo sapiens, UniProt P04406)", "sequence (P04406 whole entry)": "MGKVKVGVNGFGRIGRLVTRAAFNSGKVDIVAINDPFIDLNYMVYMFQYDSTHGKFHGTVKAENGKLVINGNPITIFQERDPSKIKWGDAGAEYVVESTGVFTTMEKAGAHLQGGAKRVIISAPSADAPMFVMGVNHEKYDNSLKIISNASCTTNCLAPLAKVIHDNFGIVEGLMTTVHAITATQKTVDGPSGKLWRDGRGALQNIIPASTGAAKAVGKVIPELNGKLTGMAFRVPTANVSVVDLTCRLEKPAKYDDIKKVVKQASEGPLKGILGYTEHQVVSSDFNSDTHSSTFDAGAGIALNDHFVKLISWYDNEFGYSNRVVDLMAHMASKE"}, "[3]": {"biological_target": "T2, Endoribonuclease toxin MazF (Escherichia coli K-12, UniProt P0AE70)", "T2 sequence (P0AE70 whole entry)": "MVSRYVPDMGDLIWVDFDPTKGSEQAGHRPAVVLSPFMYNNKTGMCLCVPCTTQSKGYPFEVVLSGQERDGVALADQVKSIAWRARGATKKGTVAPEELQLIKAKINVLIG", "assay": "substrate-only fluorescence increase artefacts – biochemical, single-stranded RNase substrate, counter-screen for MazEF activator project, dose response (AID 588502)", "format": "functional"}, "[4]": {"biological_target": "T2, Endoribonuclease toxin MazF", "assay": "activation of MazEF endoribonuclease cleavage – biochemical, fluorescence, single-stranded RNA substrate, uHTS hits, dose response (AID 588481)", "format": "functional"}, "[5]": {"test_system": "HEK293", "assay": "EBV LMP1 TES2 canonical NF-kB signalling blockers – cell-based, HEK293, luciferase, cherry-pick, dose response (AID 588343)", "format": "functional", "conditions": "Homo sapiens"}, "[6]": {"assay": "luciferase reporter signal suppression in cells – H4 neuroglioma cells, luminescence, dose response (AID 1990)", "format": "functional, cell-based"}, "[7]": {"assay": "Luminescence Cell-Based Dose Response HTS to Identify Inhibitors of 5'UTR Stem-Loop Driven Prion Protein mRNA Translation in H4 Neuroglioblastoma Cells. [Related pubchem assays: 1827 (Project Summary), 1813 (Primary HTS)]", "format": "functional"}, "[8]": {"assay": "alpha-synuclein stem-loop luciferase translation blockers – H4 neuroglioma cells, luminescence, confirmation (AID 1988)", "format": "functional, cell-based"}, "[9]": {"biological_target": "Glucose-6-phosphate 1-dehydrogenase (Homo sapiens, UniProt P11413)", "sequence (P11413 whole entry)": "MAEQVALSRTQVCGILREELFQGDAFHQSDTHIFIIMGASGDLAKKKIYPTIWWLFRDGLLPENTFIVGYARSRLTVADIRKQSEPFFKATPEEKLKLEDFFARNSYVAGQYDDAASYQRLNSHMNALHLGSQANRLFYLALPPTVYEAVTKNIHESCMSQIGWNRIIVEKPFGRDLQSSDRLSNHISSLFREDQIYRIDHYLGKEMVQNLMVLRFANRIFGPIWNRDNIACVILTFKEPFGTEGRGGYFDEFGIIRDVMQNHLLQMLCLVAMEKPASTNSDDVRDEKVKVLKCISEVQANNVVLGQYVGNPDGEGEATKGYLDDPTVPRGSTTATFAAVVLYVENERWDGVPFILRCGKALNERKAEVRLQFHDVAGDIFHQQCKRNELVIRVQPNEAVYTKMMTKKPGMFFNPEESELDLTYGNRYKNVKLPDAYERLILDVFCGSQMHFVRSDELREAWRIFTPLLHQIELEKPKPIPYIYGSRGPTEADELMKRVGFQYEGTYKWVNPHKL", "assay": "inhibition of Homo sapiens G6PD, dose series – biochemical, fluorescence, selectivity assay for P. falciparum G6PD inhibitor project, dose response (AID 504792)", "format": "functional"}, "[10]": {"biological_target": "T3, Rac GTPase-activating protein 1 (Homo sapiens, UniProt Q9H0H5)", "T3 sequence (Q9H0H5 whole entry)": "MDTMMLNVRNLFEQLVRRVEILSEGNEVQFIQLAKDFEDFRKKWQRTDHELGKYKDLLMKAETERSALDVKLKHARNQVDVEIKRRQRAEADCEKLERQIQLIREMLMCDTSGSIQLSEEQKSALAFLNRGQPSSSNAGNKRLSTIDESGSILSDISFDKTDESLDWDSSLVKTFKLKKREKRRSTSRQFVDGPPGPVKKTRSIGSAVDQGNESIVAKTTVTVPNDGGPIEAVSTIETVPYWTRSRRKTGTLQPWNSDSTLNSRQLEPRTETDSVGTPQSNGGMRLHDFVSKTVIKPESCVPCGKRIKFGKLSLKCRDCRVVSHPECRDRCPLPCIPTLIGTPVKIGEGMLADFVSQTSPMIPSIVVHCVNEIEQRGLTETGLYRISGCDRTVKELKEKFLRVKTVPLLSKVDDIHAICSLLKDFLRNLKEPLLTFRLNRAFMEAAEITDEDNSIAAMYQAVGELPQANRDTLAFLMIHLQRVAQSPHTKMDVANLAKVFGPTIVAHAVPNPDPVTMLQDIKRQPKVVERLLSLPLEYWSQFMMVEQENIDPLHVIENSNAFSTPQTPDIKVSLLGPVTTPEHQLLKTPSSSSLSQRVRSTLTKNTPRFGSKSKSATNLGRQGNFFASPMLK", "assay": "blockers of MgcRacGAP-driven Rac1 GTP hydrolysis – biochemical, ADP Hunter fluorescence, primary and confirmatory, confirmation (AID 624330)", "format": "functional"}, "[11]": {"biological_target": "T4, DNA repair protein RAD52 homolog (Homo sapiens, UniProt P43351)", "T4 sequence (P43351 whole entry)": "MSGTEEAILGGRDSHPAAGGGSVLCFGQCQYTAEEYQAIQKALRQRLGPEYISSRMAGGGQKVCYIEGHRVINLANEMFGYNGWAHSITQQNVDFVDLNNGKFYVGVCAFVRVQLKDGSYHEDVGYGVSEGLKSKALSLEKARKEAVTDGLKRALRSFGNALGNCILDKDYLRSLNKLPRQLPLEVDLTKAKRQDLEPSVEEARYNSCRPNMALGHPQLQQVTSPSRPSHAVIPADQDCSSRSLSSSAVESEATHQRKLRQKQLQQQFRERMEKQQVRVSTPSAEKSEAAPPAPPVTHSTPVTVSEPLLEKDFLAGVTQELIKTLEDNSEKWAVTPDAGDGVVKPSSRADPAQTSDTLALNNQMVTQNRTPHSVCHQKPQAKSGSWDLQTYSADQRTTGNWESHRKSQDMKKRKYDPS", "format": "functional, biochemical"}, "[12]": {"assay": "NIH3T3 cell viability loss – ATP luminescence, mouse fibroblasts, counter-screen, dose response (AID 2010);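 note: cells exposed to compound for about 90 hours before reading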", "format": "functional, cell-based"}, "[13]": {"test_system": "INS1", "assay": "INS-1E survival protection against cytokine death – cell-based, luminescence, retest, dose response (AID 449756);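 note: cell death triggered by IL-1 beta plus TNF-alpha plus IFN-gamma mixture; protective hits raise ATP signal compared with cytokine alone wells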", "format": "functional", "conditions": "Rattus norvegicus"}, "[14]": {"assay": "Trypanosoma cruzi growth suppression in host cells – NIH3T3 host cells, beta-gal luminescence, confirmation (AID 2044);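 note: intracellular parasites grown in NIH/3T3 mouse fibroblasts as host cells; luminescent beta-galactosidase reporter signal from transgenic T. cruzi replicating inside host cells; inhibitors lower the luminescence signal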", "format": "functional, cell-based"}, "[15]": {"assay": "A Cell Based Secondary Assay To Explore Cytotoxicity of Compounds that Sensitize Mycobacterium Tuberculosis to Beta-Lactam Antibiotics.", "format": "functional"}},
  "note": "Calls of active or inactive are those of the source.",
  "data": [
    {"smiles": "Cn1ccnc1Sc1nc(Nc2ccccc2)nc(Nc2ccccc2)n1", "values": [
      {"measurement": "IC50", "setting": "[1]", "value": "> 100 µM (inactive)"},
      {"measurement": "IC50", "setting": "[2]", "value": "> 100 µM (not active)"}
    ]},
    {"smiles": "COc1ccccc1N1C(=O)S/C(=C\\c2cc(C)n(C)c2C)C1=O", "values": [
      {"measurement": "EC50", "setting": "[3]", "value": "30.6 µM (inactive)"},
      {"measurement": "EC50", "setting": "[4]", "value": "> 99 µM (inactive)"}
    ]},
    {"smiles": "Cc1ccccc1C(=O)N1CCN(c2ccc(NC(=O)c3ccco3)cc2Cl)CC1", "values": [
      {"measurement": "AC50", "setting": "[5]", "value": "2.45 µM (active)"}
    ]},
    {"smiles": "CC(C)c1ccc(-c2cc(C(=O)O)[nH]n2)cc1", "values": [
      {"measurement": "IC50", "setting": "[1]", "value": "> 100 µM (inactive)"},
      {"measurement": "IC50", "setting": "[2]", "value": "> 100 µM (not active)"}
    ]},
    {"smiles": "Cc1csc(SCC(=O)c2cc(C)n(Cc3cccs3)c2C)n1", "values": [
      {"measurement": "EC50", "setting": "[6]", "value": "8.74 µM (active)"},
      {"measurement": "EC50", "setting": "[7]", "value": "8.09 µM (active)"},
      {"measurement": "EC50", "setting": "[8]", "value": "6.24 µM (active)"},
      {"measurement": "AC50", "setting": "[5]", "value": "2.29 µM (active)"}
    ]},
    {"smiles": "Cc1cc(NC(=O)/C(C#N)=C\\c2ccc(-c3ccc(SC(F)F)cc3)o2)n(-c2ccccc2)n1", "values": [
      {"measurement": "EC50", "setting": "[3]", "value": "22.8 µM (inactive)"},
      {"measurement": "EC50", "setting": "[4]", "value": "> 99 µM (inactive)"}
    ]},
    {"smiles": "c1nc2nc[nH]c(SSc3[nH]cnc4ncnc3-4)c-2n1", "values": [
      {"measurement": "IC50", "setting": "[9]", "value": "30.8 µM (inactive)"},
      {"measurement": "IC50", "setting": "[10]", "value": "75.2 µM (active)"}
    ]},
    {"smiles": "O=C1Nc2cc(C(=O)NCCCN3CCCC3)ccc2S/C1=C/c1cccc(Cl)c1", "values": [
      {"measurement": "IC50", "setting": "[9]", "value": "> 80 µM (inactive)"},
      {"measurement": "AC50", "setting": "[11]", "value": "7.29 µM (active)"}
    ]},
    {"smiles": "C=CCn1c(=O)/c(=C\\c2ccccn2)s/c1=C(/C#N)C(=O)NCC1CCCO1", "note": "(centres undefined)", "values": [
      {"measurement": "EC50", "setting": "[3]", "value": "> 99 µM (inactive)"},
      {"measurement": "EC50", "setting": "[4]", "value": "> 99 µM (inactive)"}
    ]},
    {"smiles": "COc1cc(C(=O)Oc2ccccc2/C=N/NC(=O)c2ccc(C)c(Cl)c2)cc(OC)c1OC", "values": [
      {"measurement": "EC50", "setting": "[12]", "value": "> 60 µM (not active)"},
      {"measurement": "AC50", "setting": "[13]", "value": "0.829 µM (active)"},
      {"measurement": "EC50", "setting": "[14]", "value": "1.17 µM (active)"},
      {"measurement": "AC50", "setting": "[5]", "value": "12.9 µM (active)"},
      {"measurement": "CC50", "setting": "[15]", "value": "2.84 µM (active)"}
    ]},
    {"smiles": "COC(=O)c1ccccc1/N=C/C1=C(O)c2c(C)nn(-c3ccccn3)c2CC1", "values": [
      {"measurement": "IC50", "setting": "[9]", "value": "> 80 µM (inactive)"}
    ]},
    {"smiles": "Cc1nnc(N/N=C\\c2ccc(-c3cccc(C(=O)O)c3)o2)n1N", "values": [
      {"measurement": "IC50", "setting": "[9]", "value": "66.8 µM (inactive)"}
    ]},
    {"smiles": "S=C(N/N=C/c1ccc2ncccc2c1)Nc1cccnc1", "values": [
      {"measurement": "AC50", "setting": "[5]", "value": "1.59 µM (active)"}
    ]},
    {"smiles": "COc1ccc(OC)c(NS(=O)(=O)c2cnc3ccccc3c2)c1", "values": [
      {"measurement": "IC50", "setting": "[1]", "value": "> 10 µM (inactive)"},
      {"measurement": "IC50", "setting": "[2]", "value": "> 10 µM (inconclusive)"}
    ]}
  ]
}
